Measured values: ChEMBL document CHEMBL5236586, “Novel ginsenoside derivatives induce apoptosis in HepG-2 cells via the MDM2-p53 signaling pathway” (Bioorg Med Chem Lett, 2022)

Tests used:
[1] = Cytotoxicity against mouse L929 cells assessed as inhibition of cell proliferation by MTT assay; type: toxicity, cell-based
[2] = system: HepG2; assay: Antiproliferative activity against human HepG2 cells assessed as inhibition of cell proliferation by MTT assay; type: functional, cell-based
[3] = system: A549; assay: Antiproliferative activity against human A549 cells assessed as inhibition of cell proliferation by MTT assay; type: functional, cell-based
[4] = system: PC-3; assay: Antiproliferative activity against human PC-3 cells assessed as inhibition of cell proliferation by MTT assay; type: functional, cell-based

Row | Structure (SMILES) | IC50 [1] [µM] | IC50 [2] [µM] | IC50 [3] [µM] | IC50 [4] [µM]
1 | Cc1ccc2nc(SCC(=O)O[C@H]3CC[C@@]4(C)[C@@H](CC[C@]5(C)[C@H]4C[C@@H](O)[C@@H]4[C@H]([C@@]6(C)CCCC(C)(C)O6)CC[C@]45C)C3(C)C)[nH]c(=O)c2c1 | > 100 | > 100 | > 100 | > 100
2 | CC1(C)CCC[C@](C)([C@@H]2CC[C@]3(C)[C@@H]2[C@H](O)C[C@H]2[C@@]4(C)CC[C@H](OC(=O)CSc5nc(-c6cccc(O)c6)c(C#N)c(=O)[nH]5)C(C)(C)[C@@H]4CC[C@]23C)O1 | 78.5 | 9.35 | 14.3 | 20.8
3 | CC1(C)CCC[C@](C)([C@@H]2CC[C@]3(C)[C@@H]2[C@H](O)C[C@H]2[C@@]4(C)CC[C@H](OC(=O)CSc5nc6ccc(F)cc6c(=O)[nH]5)C(C)(C)[C@@H]4CC[C@]23C)O1 | > 100 | 70.5 | 56.6 | > 100
4 | CC1(C)CCC[C@](C)([C@@H]2CC[C@]3(C)[C@@H]2[C@H](O)CC2[C@@]4(C)CC[C@H](OC(=O)CSc5nc(-c6ccc(Cl)cc6)c(C#N)c(=O)[nH]5)C(C)(C)[C@@H]4CC[C@]23C)O1 (stereo partly drawn) | 76.8 | 6.39 | 6.79 | 7.42
5 | CC1(C)CCC[C@](C)([C@@H]2CC[C@]3(C)[C@@H]2[C@H](O)C[C@H]2[C@@]4(C)CC[C@H](OC(=O)CSc5nc6c(Cl)cccc6c(=O)[nH]5)C(C)(C)[C@@H]4CC[C@]23C)O1 | > 100 | > 100 | > 100 | 62.3
6 | CC1(C)CCC[C@](C)([C@@H]2CC[C@]3(C)[C@@H]2[C@H](O)C[C@H]2[C@@]4(C)CC[C@H](OC(=O)CSc5nc6ccc([N+](=O)[O-])cc6c(=O)[nH]5)C(C)(C)[C@@H]4CC[C@]23C)O1 | > 100 | 59.8 | > 100 | > 100
7 | COc1cccc(-c2nc(SCC(=O)O[C@H]3CC[C@]4(C)[C@H]5C[C@@H](O)[C@@H]6[C@H]([C@@]7(C)CCCC(C)(C)O7)CC[C@@]6(C)[C@]5(C)CC[C@H]4C3(C)C)[nH]c(=O)c2C#N)c1 | 64.5 | 6.85 | 6.84 | 8.98
8 | CC1(C)CCC[C@](C)([C@@H]2CC[C@]3(C)[C@@H]2[C@H](O)CC2[C@@]4(C)CC[C@H](OC(=O)CSc5nc(-c6ccc(Br)cc6)c(C#N)c(=O)[nH]5)C(C)(C)[C@@H]4CC[C@]23C)O1 (stereo partly drawn) | 77 | 5.91 | 7.51 | 9.72
9 | CC1(C)CCC[C@](C)([C@@H]2CC[C@]3(C)[C@@H]2[C@H](O)CC2[C@@]4(C)CC[C@H](OC(=O)CSc5nc(-c6cccc(F)c6)c(C#N)c(=O)[nH]5)C(C)(C)[C@@H]4CC[C@]23C)O1 (stereo partly drawn) | 76 | 7.56 | 6.98 | 8.19
10 | CC1(C)CCC[C@](C)([C@@H]2CC[C@]3(C)[C@@H]2[C@H](O)C[C@H]2[C@@]4(C)CC[C@H](O)C(C)(C)[C@@H]4CC[C@]23C)O1 | > 100 | 59.2 | 58.4 | 68.3
11 | CC1(C)CCC[C@](C)([C@@H]2CC[C@]3(C)[C@@H]2[C@H](O)CC2[C@@]4(C)CC[C@H](OC(=O)CSc5nc(-c6ccc(F)cc6)c(C#N)c(=O)[nH]5)C(C)(C)[C@@H]4CC[C@]23C)O1 (stereo partly drawn) | 76 | 7.75 | 9.09 | 7.82
12 | CC1(C)CCC[C@](C)([C@@H]2CC[C@]3(C)[C@@H]2[C@H](O)C[C@H]2[C@@]4(C)CC[C@H](OC(=O)CSc5nc6cccc(Cl)c6c(=O)[nH]5)C(C)(C)[C@@H]4CC[C@]23C)O1 | > 100 | 67.8 | 83 | > 100
13 | COc1ccc(-c2nc(SCC(=O)O[C@H]3CC[C@@]4(C)[C@@H](CC[C@]5(C)[C@H]4C[C@@H](O)[C@@H]4C([C@@]6(C)CCCC(C)(C)O6)CC[C@]45C)C3(C)C)[nH]c(=O)c2C#N)cc1 (stereo partly drawn) | 76.3 | 5.09 | 6.88 | 9.45
14 | CC1(C)CCC[C@](C)([C@@H]2CC[C@]3(C)[C@@H]2[C@H](O)C[C@H]2[C@@]4(C)CC[C@H](OC(=O)CSc5nc(-c6ccncc6)c(C#N)c(=O)[nH]5)C(C)(C)[C@@H]4CC[C@]23C)O1 | 77.1 | 12.8 | 17.3 | 15.8
15 | CC1(C)CCC[C@](C)([C@@H]2CC[C@]3(C)[C@@H]2[C@H](O)C[C@H]2[C@@]4(C)CC[C@H](OC(=O)CSc5nc6ccc(Br)cc6c(=O)[nH]5)C(C)(C)[C@@H]4CC[C@]23C)O1 | > 100 | > 100 | > 100 | > 100
16 | Cc1cccc(-c2nc(SCC(=O)O[C@H]3CC[C@@]4(C)[C@@H](CC[C@]5(C)[C@H]4C[C@@H](O)[C@@H]4[C@H]([C@@]6(C)CCCC(C)(C)O6)CC[C@]45C)C3(C)C)[nH]c(=O)c2C#N)c1 | 77.1 | 14.1 | 13.6 | 17
17 | CC1(C)CCC[C@](C)([C@@H]2CC[C@]3(C)[C@@H]2[C@H](O)CC2[C@@]4(C)CC[C@H](OC(=O)CSc5nc(-c6cccc(Br)c6)c(C#N)c(=O)[nH]5)C(C)(C)[C@@H]4CC[C@]23C)O1 (stereo partly drawn) | 70.3 | 5.95 | 6.69 | 6.53
18 | CC1(C)CCC[C@](C)(C2CC[C@]3(C)[C@@H]2[C@H](O)C[C@H]2[C@@]4(C)CC[C@H](OC(=O)CSc5nc(-c6c[nH]c7ccccc67)c(C#N)c(=O)[nH]5)C(C)(C)[C@@H]4CC[C@]23C)O1 (stereo partly drawn) | 76.1 | 5.21 | 7.17 | 10.8
19 | CC1(C)CCC[C@](C)([C@@H]2CC[C@]3(C)[C@@H]2[C@H](O)CC2[C@@]4(C)CC[C@H](OC(=O)CSc5nc(-c6cccc(Cl)c6)c(C#N)c(=O)[nH]5)C(C)(C)[C@@H]4CC[C@]23C)O1 (stereo partly drawn) | 74.9 | 7.09 | 7.14 | 8.44
20 | CC1(C)CCC[C@](C)([C@@H]2CC[C@]3(C)[C@@H]2[C@H](O)C[C@@H]2[C@@]4(C)CC[C@H](OC(=O)CSc5nc(-c6ccccc6)c(C#N)c(=O)[nH]5)C(C)(C)[C@@H]4CC[C@]23C)O1 | 74.7 | 7.6 | 8.9 | 9.82
21 | COc1cc(-c2nc(SCC(=O)O[C@H]3CC[C@@]4(C)[C@@H](CC[C@]5(C)[C@H]4C[C@@H](O)[C@@H]4C([C@@]6(C)CCCC(C)(C)O6)CC[C@]45C)C3(C)C)[nH]c(=O)c2C#N)cc(OC)c1OC (stereo partly drawn) | 77.7 | 7.71 | 7.6 | 13.3
22 | CC1(C)CCC[C@](C)([C@@H]2CC[C@]3(C)[C@@H]2[C@H](O)C[C@H]2[C@@]4(C)CC[C@H](OC(=O)CSc5nc6cc(Cl)ccc6c(=O)[nH]5)C(C)(C)[C@@H]4CC[C@]23C)O1 | > 100 | > 100 | > 100 | > 100
